The values that follow come from patent publication US10617612B2, “Composition comprising decanal or as active ingredients for preventing hair loss or stimulating hair growth” (INDUSTRY-ACADEMIC COOPERATION FOUNDATION, YONSEI UNIVERSITY, priority 2016, dated 2020).

The test system of one data set is C57BL/6N mice. Briefly: Hair regrowth in mice with back hair removed, skin application (visual observation, hair length). Format: in vivo. Conditions: 3 mg/mouse/day on back skin once a day. The procedure: To visually confirm the state of hair growth, after the animals were lightly anesthetized with ether, the back was photographed, at the end of one week, two weeks, three weeks, and four weeks after application begins, Hair length was measured using a ruler to evaluate the degree of hair growth.

For data set [1], the system named is hair follicles of back skin. Briefly: Histological analysis of back skin (Hematoxylin-Eosin, hair follicle number and diameter). Conditions: back skin after 4 weeks of application, 3 mg/mouse/day. Format: in vivo. The text has this:
After 4 weeks of application, the animals were sacrificed and the back skin tissue sample was extracted with scissors and forceps around the area where the experimental material was applied, and fixed with formalin. After each step was dehydrated with alcohol and xylene, the back skin tissue sample was embedded with paraffin, and was cut into 5 μm slice using a microtome, and then paraffin was removed with alcohol and xylene. […] A pathology speculum specialist was examined to evaluate the hair growth cycle, and quantity of hair follicle and diameter were measured on an optical microscope.
The results of measurement of the hair follicle number in each experimental group under an optical microscope of magnification of 40 are illustrated in FIG. 3.

The nature of data set [2]: Measurement of body weight change. Conditions: 3 mg/mouse/day applied to back skin once a day.
Procedure: The animals were kept in a temperature of 21±2.0° C., relative humidity of 50±5%, and 12 hours of day and night cycles. During the experiment, the mice were fed with a regular solid feed (chow) with water freely.
To examine the effect of promoting hair growth, 8-week-old mouse of telogen hair showing pink color of dorsal skin was used. After removing the hair of the mouse backing using a clipper for a mouse, the sample was applied once a day at 4:00 PM for four weeks. Decanal (3 mg/mouse/day) which is experimental material and minoxidil (3 mg/mouse/day) used as a reference drug were dissolved in vehicle (ethanol:water:propylene glycol=5:3:2) and applied, and the vehicle only was applied to the negative control group.
The body weight of the experimental animals was measured weekly from immediately before application of the hair growth treatment to the end of application.
Data set [3] concerns embryos of sea urchins and copepods. Conditions: reported physiological activity; cited from earlier work.
Data set [4] deals with keratinocyte growth factor (KGF). The data set can be described thus: RT-PCR gene expression in back skin tissue. Format: in vivo, mouse. The settings on record: 4 weeks application. On the procedure:
(§1) To quantitatively analyze total RNA in skin tissue of experimental animal, 1 mL of Trizol solution was added to 50-100 mg of skin tissue and homogenized, followed by centrifugation at 12,000×g for 10 minutes at 4° C. After transferring the supernatant liquid to a new tube, 200 μl of chloroform was added and the mixture was vigorously shaken. This process above was repeated twice, then the supernatant liquid was transferred to a new tube and isoprophanol and the supernatant liquid were added at a ratio of 1:1. The mixture was shaken 10 times and then allowed to stand at room temperature for 10 minutes, and the supernatant liquid was removed after centrifugation at 12,000×g for 10 minutes at 4° C., and 1 ml of 70% ethanol was added to the remaining precipitate, and the precipitate was centrifuged at 7,500×g and 4° C. for 5 minutes. After removing the ethanol, the tube containing the RNA precipitate was dried at room temperature for 5 minutes, and the RNA pellet was dissolved using nuclease free water. The concentration of RNA extracted at 260 nm and 280 nm wavelengths was measured using a UV/VIS spectrophotometer (Beckman coulter, DU730), and agarose gel electrophoresis was performed to confirm the integrity of the RNA sample.
(§2) cDNA was synthesized by performing reverse transcription using oligo dT primer and superscript reverse transcriptase (GIBCOBRL, Gaithersburg, Md., USA) after RNA isolation. The cDNA obtained by reverse transcription was determined as a template, and PCR was performed using the 5′ and 3′ flanking sequence of the gene cDNA to be amplified as primers. In this case, primers required were synthesized by a manufacture specialized company of primers (Bionia Co., Ltd., Korea), and the primer sequences were illustrated in Table 1 below. 2 μl of the reacted cDNA reaction mixture and 2.5 units of Taq polymerase (Takara, Japan) were added to a mixture prepared by adding 5 μl of 10× reaction buffer [100 mM KCL, 20 mM Tris-HCL (pH 8.0), 2.5 mM MgCl2], 4 μl of 10 mM dNTP, and 1 μl each of 0.2 μM sense and antisense primer, and the volume was adjusted using 50 μl of distilled water, then PCR was performed using a PCR instrument. […] Since 1 μl of the amplified product was electrophoresed on 1% agarose gel to check the DNA band, gene expression level was evaluated.
(§3) In addition, to investigate hair growth promoting action mechanism of Decanal, the expression change of endocrine factors affecting hair growth was evaluated. The gene expression level of insulin-like growth factor 1 (IGF1), vascular endothelial growth factor (VEGF), hepatocyte growth factor (HGF), and keratinocyte growth factor (KGF), which were growth factors affecting hair growth promotion in back skin tissue, was evaluated. […]

The test system of data set [5] is vascular endothelial growth factor (VEGF). The data set can be described thus: RT-PCR gene expression in back skin tissue. The settings on record: 4 weeks application. In kind it is in vivo, mouse. On the procedure:
as §1, §2, §3

The subject of data set [6] is hepatocyte growth factor (HGF). Briefly: RT-PCR gene expression in back skin tissue. In kind it is in vivo, mouse. The settings on record: 4 weeks application. On the procedure:
as §1, §2, §3

In data set [7] the test system is insulin-like growth factor 1 (IGF1). The data set can be described thus: RT-PCR gene expression in back skin tissue. In kind it is in vivo, mouse. The settings on record: 4 weeks application. The procedure: as §1, §2, §3
For data set [8], the system named is FZD1 (frizzled receptor 1). Briefly: RT-PCR gene expression in back skin tissue. In kind it is in vivo, mouse. The settings on record: 4 weeks application. The procedure:
as §1
(§4) cDNA was synthesized by performing reverse transcription using oligo dT primer and superscript reverse transcriptase (GIBCOBRL, Gaithersburg, Md., USA) after RNA isolation. The cDNA obtained by reverse transcription was determined as a template, and PCR was performed using the 5′ and 3′ flanking sequence of the gene cDNA to be amplified as primers. In this case, primers required were synthesized by a manufacture specialized company of primers (Bionia Co., Ltd., Korea), and the primer sequences were illustrated in Table 1 below. 2 μl of the reacted cDNA reaction mixture and 2.5 units of Taq polymerase (Takara, Japan) were added to a mixture prepared by adding 5 μl of 10× reaction buffer [100 mM KCL, 20 mM Tris-HCL (pH 8.0), 2.5 mM MgCl2], 4 μl of 10 mM dNTP, and 1 μl each of 0.2 μM sense and antisense primer, and the volume was adjusted using 50 μl of distilled water, then PCR was performed using a PCR instrument. PCR conditions were set at 94° C. for 4 minutes, 94° C. for 30 seconds, 30 cycles [52° C. for 30 seconds, 72° C. for 45 seconds] and 72° C. for 10 minutes. Since 1 μl of the amplified product was electrophoresed on 1% agarose gel to check the DNA band, gene expression level was evaluated.
(§5) The expression change of Wnt/β-catenin signal transduction material which was known as hair growth promotion mechanism in the back skin tissue of the mice to which the experimental material was applied for 4 weeks, was analyzed by RT-PCR.

In data set [9] the test system is GSK3β (glycogen synthase kinase 3β). Briefly: RT-PCR gene expression in back skin tissue. Format: in vivo, mouse. Conditions: 4 weeks application. The procedure:
as §1, §4, §5

The subject of data set [10] is β-catenin. Briefly: RT-PCR gene expression in back skin tissue. In kind it is in vivo, mouse. The settings on record: 4 weeks application. The procedure:
as §1, §4, §5

In data set [11] the test system is LRP5 (low-density lipoprotein receptor-related protein 5). Briefly: RT-PCR gene expression in back skin tissue. Format: in vivo, mouse. The settings on record: 4 weeks application. The procedure: as §1, §4, §5
For the next data set, the system named is Wnt10b. The data set can be described thus: RT-PCR gene expression in back skin tissue. Conditions: 4 weeks application. Format: in vivo, mouse. On the procedure:
as §1, §4, §5

The next data set relates to Axin. Briefly: RT-PCR gene expression in back skin tissue. Format: in vivo, mouse. Conditions: 4 weeks application. On the procedure: as §1, §4, §5
Data set [12] deals with nematode parasitic on plant roots. The settings on record: reported; cited from earlier work.
The subject of data set [13] is β-catenin. Briefly: Western blot of back skin tissue. Format: in vivo, mouse. The settings on record: 4 weeks application. On the procedure:
A predetermined amount of visceral fat or liver tissue was homogenized with liquid nitrogen and lysis buffer in a mortar, and then centrifuged at 13,000×g at 4° C. for 20 minutes. And the middle layer was taken and the protein was quantified by the Bradford method. 50 μg of protein was electrophoresed on SDS polyacrylamide gel, electro blotted onto PVDF hyper film, and reacted with β-catenin and β-actin antibody (Cell Signaling Technology, Danvers, Mass., USA), respectively. Signals of each protein were visualized using a chemiluminescent detection system (Amersham) and the band thickness was quantified using Quantity One Analysis Software (Bo-Rad Laboratories).
The Wnt/β-catenin Signal transduction pathway is known to be involved in promoting entry into the anagen by regulating hair follicle cycle. The expression level of β-catenin was analyzed by western blotting in the back skin tissues in order to determine whether the signal transduction pathway related to hair growth promotion was activated.
Background: Immunoblotting shows a protein as a band on a membrane.

Regarding `CCCCCCCCCC=O` [DC, Decanal], in the data set on C57BL/6N mice (4 weeks, p<0.001), the “Increase of hair length compared to negative control after 4 weeks” value was determined as 438%. The “Visual state of hair growth after 4 weeks” value with C57BL/6N mice (4 weeks, vs negative control) was “hair was grown evenly and heartily in the larger number of individuals compared to the negative control group”. Besides, in the data set on C57BL/6N mice (measured weekly), the “Hair length compared to negative control, from the 2nd week” value is on record as “significantly increased from the 2nd week”. Moreover, the “Onset of hair growth (visual observation)” value in the data set on C57BL/6N mice (negative control: no hair after 2 weeks) is reported as “hair began to grow from the 2nd week after application”. The “Histological appearance of hair follicles” value in data set [1] is “the hair follicle was lengthened and appeared outside the skin”. Besides, the “Increase of hair follicle diameter compared to negative control” value in [1] (image analysis) was found to be 33%. Further, the “Increase of number of hair follicles compared to negative control” value in [1] (magnification of 40) turned out to be 193%. Moreover, in data set [2], the “Body weight after 4 weeks of application, difference between experimental groups” value is reported as “not significantly different”. Besides, the “Effect on embryos of sea urchins and copepods” value in data set [3] is “a reproductive failure was induced by inducing apoptosis”. For the same compound, the “KGF gene expression compared to negative control” value in data set [4] is given as “significantly increased expression”. In addition, in data set [5], the “VEGF gene expression compared to negative control” value is on record as “significantly increased expression”. In data set [6], the “HGF gene expression compared to negative control” value is “significantly increased expression”. Further, the “IGF1 gene expression compared to negative control” value in [7] is “significantly increased expression”. In [8], the “FZD1 gene expression compared to negative control” value was “significantly increased”. Further, in data set [9], the “GSK3β gene expression compared to negative control” value was “significantly decreased”. For the same compound, the “β-catenin gene expression compared to negative control” value in the data set with β-catenin [10] was “significantly increased”. Also, the “LRP5 gene expression compared to negative control” value in [11] was “significantly increased”. Moreover, in the data set with Wnt10b, the “Wnt10b gene expression compared to negative control” value is on record as “significantly increased”. The “Axin gene expression compared to negative control” value in the data set with Axin is “significantly decreased”. Besides, in [12], the Nematicidal activity result is listed as “strong nematicidal activity”. The “β-catenin protein expression effect compared to minoxidil group” value in the data set with β-catenin [13] is recorded as “superior to the minoxidil group”. Also, in the data set with β-catenin [13] (3 mg/mouse/day), the “Increase of β-catenin protein expression compared to negative control” value amounted to 79%.
Regarding `Nc1cc(N2CCCCC2)nc(N)[n+]1[O-]` [MXD, minoxidil, reference compound], the “Body weight after 4 weeks of application, difference between experimental groups” value in data set [2] is given as “not significantly different”.
